Reference: patent US6184254A, “Methods of identifying modulators of perivascular sensory nerve Ca2+ receptors” (priority 1998, dated 2001)
Entries after “also recorded” stand apart in the source; their conditions may differ. Where two headings read alike, the source gives them in different places. Ends that are not written are not given here.

Key:
[1] = test system: Ca^2+-induced relaxation of mesenteric resistance arteries; assay: Inhibition of Ca2+-induced relaxation of mesenteric resistance arteries by antagonists or denervation; design: species or system rat; conditions: for Result (antagonist effect on Ca2+-induced relaxation): Table 3
CaR = conditions: cited from earlier work
mean arterial pressure = assay: Mean arterial pressure of conscious SHR and WKY rats after bolus administration; type: in vivo, rat (SHR and WKY)
Excerpt: FIG. 12. Effect of bolus administration of 3 μmol/kg NPS R467 on mean arterial pressure (carotid artery catheter) of conscious SHR rats.
FIG. 13. Effect of bolus administration of 1 μmol/kg NPS R831 on mean arterial pressure (carotid artery catheter) of conscious SHR and WKY.
The initial studies assessed the effect of bolus administration of NPS R467 on mean arterial pressure of conscious rats of both strains.
As noted, one result of the studies in Example 1 was the identification of NPS R831 as a candidate compound for assessment of blood pressure lowering effects. A study was performed in which the effect of a bolus injection of NPS R831 on blood pressure of a single SHR and a single WKY rat were measured.

[2] = test system: norepinephrine precontracted mesenteric resistance arteries (perivascular CaR); assay: Vasorelaxation of norepinephrine precontracted mesenteric resistance arteries; design: species or system rat
Excerpt: Branch I and II mesenteric resistance arteries, internal diameter […], are isolated from the mesenteric arcade of male Wistar rats and placed in ice cold physiologic salt solution (PSS) of the following composition in mM: NaCl, 130-140; KCl, 4.7; MgSO4.7H2 O, 1.17; NaHCO3, 5-15; KH2 PO4, 1.15 and Na2 HPO4, 1.10, CaCl2, 1.0; HEPES, 50; and glucose, 5, with a pH of 7.4 when gassed with 95% air, 5% CO2.
After cleaning of fat and connective tissue, the arterial segments are denuded of endothelium by rubbing a human hair in and out of the lumen. The vessel segments are then mounted between a force transducer and translation stage of a wire myograph using tungsten wire and the PSS is warmed to 37° C. and gassed with 95% air, 5% CO2 to provide a pH of 7.4. The vessel segments are then stretched to a length which is equivalent to an internal diameter of […] and allowed to equilibrate for 30 minutes. The vessels are then exposed to […] norepinephrine for three 5 minute periods to induce reproducible contractile responses. […] The vessel is then washed and allow to relax to baseline.
To determine whether the test compound is a vasodilator, the vessel is again precontracted by the addition of […] norepinephrine, and after the force response reaches a steady state, the test compound is cumulatively added and the effect on force generation is determined. […] Ca^2+ receptor agonists that are found to be endothelium-independent vasodilators and whose dilator activity is blocked by quinacrine and sensory denervation are moved onto the tertiary in vivo blood pressure screen.
Mesenteric resistance arteries were precontracted with either 100 mM K^+ (in the presence of 1 μM phentolamine) or 5 μM norepinephrine and response to cumulative addition of NPS R831 (10 nM to 50 μM) determined.

[3] = test system: voltage sensitive Ca^2+ channel; conditions: "in view of statements"; cited from earlier work
Ca^2+ channels = target: T1, Ca^2+ channels (Rattus norvegicus, UniProt P22002); assay: Relaxation of mesenteric arteries precontracted with 100 mM K+ (Ca2+ channel blocking activity)
T1 construct: voltage sensitive Ca^2+ channels present on smooth muscle; from tissue; host or cells: isolated mesenteric resistance arteries (rat)
T1 sequence (P22002 whole entry): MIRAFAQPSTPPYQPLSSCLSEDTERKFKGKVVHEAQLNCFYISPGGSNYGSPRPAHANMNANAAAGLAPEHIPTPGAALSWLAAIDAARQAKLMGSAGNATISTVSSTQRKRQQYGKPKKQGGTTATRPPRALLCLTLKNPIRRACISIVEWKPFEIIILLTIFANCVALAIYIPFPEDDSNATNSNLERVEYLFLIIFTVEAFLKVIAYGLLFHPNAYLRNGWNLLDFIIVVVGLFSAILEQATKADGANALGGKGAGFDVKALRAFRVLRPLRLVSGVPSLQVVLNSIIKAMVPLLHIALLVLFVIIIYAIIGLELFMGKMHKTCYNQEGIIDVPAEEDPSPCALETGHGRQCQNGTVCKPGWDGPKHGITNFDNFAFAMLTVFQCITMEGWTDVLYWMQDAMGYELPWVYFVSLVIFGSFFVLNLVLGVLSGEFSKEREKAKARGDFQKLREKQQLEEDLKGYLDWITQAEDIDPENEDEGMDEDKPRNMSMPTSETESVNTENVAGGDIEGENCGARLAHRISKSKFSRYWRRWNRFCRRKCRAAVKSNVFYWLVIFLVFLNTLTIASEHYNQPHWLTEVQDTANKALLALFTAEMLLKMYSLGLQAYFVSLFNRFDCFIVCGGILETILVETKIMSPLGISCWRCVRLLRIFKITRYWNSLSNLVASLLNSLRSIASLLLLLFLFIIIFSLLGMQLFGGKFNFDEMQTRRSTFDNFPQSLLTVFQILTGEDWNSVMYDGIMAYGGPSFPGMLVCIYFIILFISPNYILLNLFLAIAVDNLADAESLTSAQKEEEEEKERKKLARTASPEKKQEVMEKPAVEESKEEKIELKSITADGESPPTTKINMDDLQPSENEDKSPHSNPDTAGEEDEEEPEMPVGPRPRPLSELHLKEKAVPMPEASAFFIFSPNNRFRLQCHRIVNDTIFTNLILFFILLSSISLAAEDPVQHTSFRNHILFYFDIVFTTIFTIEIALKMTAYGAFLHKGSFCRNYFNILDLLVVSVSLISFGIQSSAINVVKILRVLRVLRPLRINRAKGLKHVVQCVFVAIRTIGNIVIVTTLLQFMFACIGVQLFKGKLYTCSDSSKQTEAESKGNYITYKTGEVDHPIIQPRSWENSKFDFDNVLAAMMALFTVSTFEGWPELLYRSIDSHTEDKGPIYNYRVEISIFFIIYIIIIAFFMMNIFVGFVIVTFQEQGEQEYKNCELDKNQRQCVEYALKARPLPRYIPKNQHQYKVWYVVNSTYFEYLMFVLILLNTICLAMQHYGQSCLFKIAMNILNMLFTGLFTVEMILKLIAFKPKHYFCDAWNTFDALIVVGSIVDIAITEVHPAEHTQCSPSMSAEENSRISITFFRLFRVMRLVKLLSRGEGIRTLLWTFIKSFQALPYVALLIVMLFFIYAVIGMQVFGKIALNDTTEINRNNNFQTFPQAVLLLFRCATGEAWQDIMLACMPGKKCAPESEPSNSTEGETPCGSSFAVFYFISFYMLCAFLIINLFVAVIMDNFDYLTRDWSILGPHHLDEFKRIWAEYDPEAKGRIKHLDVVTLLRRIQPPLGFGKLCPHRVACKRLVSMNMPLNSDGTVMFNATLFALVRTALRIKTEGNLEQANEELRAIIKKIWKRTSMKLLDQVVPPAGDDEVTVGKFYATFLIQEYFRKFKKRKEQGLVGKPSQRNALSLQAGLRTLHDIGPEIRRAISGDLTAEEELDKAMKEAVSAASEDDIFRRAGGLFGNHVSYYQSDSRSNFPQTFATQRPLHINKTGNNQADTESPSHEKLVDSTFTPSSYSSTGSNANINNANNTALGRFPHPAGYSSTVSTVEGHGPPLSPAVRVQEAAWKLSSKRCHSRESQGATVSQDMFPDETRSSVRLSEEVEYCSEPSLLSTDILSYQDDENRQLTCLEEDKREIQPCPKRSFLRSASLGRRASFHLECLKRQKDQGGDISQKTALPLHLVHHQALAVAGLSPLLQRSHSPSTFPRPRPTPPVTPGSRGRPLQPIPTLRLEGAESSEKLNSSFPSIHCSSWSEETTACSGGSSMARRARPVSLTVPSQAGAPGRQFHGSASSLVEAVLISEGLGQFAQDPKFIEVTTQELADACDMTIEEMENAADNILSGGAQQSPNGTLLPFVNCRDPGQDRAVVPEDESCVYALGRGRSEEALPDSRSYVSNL
T1 sequence (P54290 25-944 partner limits assumed): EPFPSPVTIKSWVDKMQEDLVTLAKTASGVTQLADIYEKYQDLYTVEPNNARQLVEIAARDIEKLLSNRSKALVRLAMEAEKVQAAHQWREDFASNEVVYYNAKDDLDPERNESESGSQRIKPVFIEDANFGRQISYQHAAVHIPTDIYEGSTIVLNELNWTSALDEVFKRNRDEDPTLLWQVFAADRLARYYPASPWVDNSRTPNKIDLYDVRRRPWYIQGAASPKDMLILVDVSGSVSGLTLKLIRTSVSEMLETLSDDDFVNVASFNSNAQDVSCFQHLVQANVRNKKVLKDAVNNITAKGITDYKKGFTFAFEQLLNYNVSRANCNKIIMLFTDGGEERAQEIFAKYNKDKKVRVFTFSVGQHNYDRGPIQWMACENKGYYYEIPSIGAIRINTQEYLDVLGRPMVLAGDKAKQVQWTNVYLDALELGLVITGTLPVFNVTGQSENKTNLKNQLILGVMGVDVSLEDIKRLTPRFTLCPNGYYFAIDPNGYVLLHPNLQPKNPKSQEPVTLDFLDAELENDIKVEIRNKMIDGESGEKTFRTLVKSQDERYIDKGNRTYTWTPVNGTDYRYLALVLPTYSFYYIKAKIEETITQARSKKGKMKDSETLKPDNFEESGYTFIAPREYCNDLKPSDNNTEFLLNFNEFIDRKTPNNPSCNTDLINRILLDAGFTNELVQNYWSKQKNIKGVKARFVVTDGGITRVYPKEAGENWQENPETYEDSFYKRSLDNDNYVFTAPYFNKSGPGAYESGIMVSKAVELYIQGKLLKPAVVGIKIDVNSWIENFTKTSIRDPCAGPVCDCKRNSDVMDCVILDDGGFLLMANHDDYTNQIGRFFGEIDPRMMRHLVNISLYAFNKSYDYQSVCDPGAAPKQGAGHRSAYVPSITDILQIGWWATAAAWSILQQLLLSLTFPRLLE
T1 sequence (P54290 945-1091 partner limits assumed): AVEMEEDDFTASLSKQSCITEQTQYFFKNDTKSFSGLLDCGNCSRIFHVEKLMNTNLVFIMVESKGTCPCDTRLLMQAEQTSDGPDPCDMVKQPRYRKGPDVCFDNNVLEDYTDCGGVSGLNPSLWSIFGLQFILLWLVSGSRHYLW
Excerpt: Prior studies have shown that the parathyroid CaR agonists of the NPS R467 class block voltage sensitive Ca^2+ channel at mid-micromolar concentrations. […] The rationale was based on the facts that (a) K^+ -induced contraction is the result of influx of Ca^2+ into the cell through voltage gated Ca^2+ channels, and (b) Ca^2+ -induced relaxation is not observed during K^+ depolarization. Thus, CaR agonist mediated relaxation observed during K^+ induced contraction would reflect Ca^2+ channel blocking activity while […] relaxation observed during norepinephrine-induced contraction (which results from both Ca^2+ release and Ca^2+ entry) would be a mixture of Ca^2+ receptor stimulated relaxation and Ca^2+ channel activity.
Mesenteric resistance arteries were precontracted with either 100 mM K^+ (in the presence of 1 μM phentolamine) or 5 μM norepinephrine and response to cumulative addition of NPS R831 (10 nM to 50 μM) determined. […] To determine that the high sensitivity component observed during norepinephrine-induced contraction is mediated by the perivascular CaR two additional studies are conducted.

rat tail arteries = conditions: cited from earlier work
[4] = test system: mesenteric resistance arteries; assay: Isometric force/active stress of Ca2+-depleted mesenteric resistance arteries; design: species or system Wistar rat
Method: In the course of studies designed to examine the hypothesis that the Ca^2+ force relationship of resistance arteries is altered in genetically hypertensive rats, it was discovered that physiologic concentrations of extracellular Ca^2+ affected the repeated contraction elicited by norepinephrine in Ca^2+ -free medium.
Mesenteric resistance arteries were isolated from Wistar rats; and intracellular Ca^2+ and isometric force were measured using a fura-based method and w ire myography (Bian, et aL, 1995b). Vessels were depleted of releasable Ca^2+ by repeated contraction with norepinephrine; and extracellular Ca^2+ was then cumulatively added back from 0.025-2.5 mmol/L in the presence of a n agonist. […] It was concluded that extracellular Ca^2+ limits force generation by depressing myofilament Ca^2+ sensitivity and decreasing intracellular Ca^2+ secondary to activation of a Ca^2+ -sensitive K^+ channel.

[5] = bolus injection, single SHR and single WKY
[6] = FIG. 16, 3 μM miconazole, 1 μM pentobarbital or 1 μM quinacrine, p<0.05

## 4 Cl-D-Phe^6,Leu^17 -VIP
[1]
  Result (antagonist effect on Ca2+-induced relaxation): no effect

## COc1ccccc1CN[C@H]1CCCN[C@H]1c1ccccc1 [CP99, 994]
[1]
  Result (antagonist effect on Ca2+-induced relaxation): no effect

## [Gd+3] [Gd^3+]
CaR
  activation of CaR: activated

## COC(=O)[C@@H](N)CCCNC(=N)N[N+](=O)[O-] [L-NAME]
[1]; 100 μM L-NAME
  effect on Ca2+-induced relaxation: inhibited/reversed
[1]; L-NAME pre-treatment
  effect on Ca2+-induced relaxation: partially inhibited
[1]
  Result (antagonist effect on Ca2+-induced relaxation): no effect

## [La+3] [La^3+]
CaR
  activation of CaR: activated

## COc1cccc([C@@H](C)NCCCc2ccccc2)c1 [NPS R467]
Mean arterial pressure; bolus, both strains
  time for development of blood pressure lowering effect: 30 to 40 min
Mean arterial pressure; bolus, conscious rats, both strains
  blood pressure lowering effect: modest and slowly developing
[2]; 10 mM TEA, 10's of nM drug
  effect of TEA on relaxation induced by low range of the drug: completely antagonized
[2]; TEA, higher concentration
  effect of TEA on relaxation induced by higher concentration of the drug: not blocked by TEA
[2]; biphasic relaxation, high range
  concentration causing a larger relaxation: 3 to 10 µM
[2]; biphasic relaxation, low range
  concentration inducing relaxation of similar extent to the Ca2+ relaxation: 50 to 300 nM
[2]; interpretation consistent with data
  concentration activating the perivascular Ca2+ receptor and inducing relaxation: 30 to 300 nM
[3]
  concentration of non-selective channel effects: ≥ 4 µM

## COc1cccc([C@@H](C)NCCCc2ccccc2OC)c1 [NPS R831]
Mean arterial pressure; [5]
  blood pressure lowering effect: moderately rapid (within 5 min) blood pressure lowering effect in both strains
  onset of blood pressure lowering effect: ≤ 5 min
[2]; compared with parathyroid CaR system
  potency in relaxing precontracted arteries vs activating the parathyroid CaR: relaxes precontracted arteries with the same potency as it activates the parathyroid CaR system
[2]; norepinephrine-induced contraction
  concentration of possibly perivascular CaR mediated component: sub-micromolar concentrations
Ca^2+ channels; 100 mM K+ (1 μM phentolamine) vs 5 μM norepinephrine, NPS R831 10 nM to 50 μM
  shift of relaxation response during K+- vs norepinephrine-induced contraction: significantly shifted to the right (less sensitive)
Ca^2+ channels; K+ vs norepinephrine contraction
  concentration of Ca2+ channel blocking mechanism of action: mid-μM concentrations
Ca^2+ channels; mesenteric arteries precontracted with 100 mM K+, read-out: IC50 for block of Ca2+ channels
  IC50: ~1500 nM

## CC(=O)NC1(c2ccccc2)CCN(CC[C@H](CN(C)C(=O)c2ccccc2)c2ccc(Cl)c(Cl)c2)CC1 [SR48968]
[1]
  Result (antagonist effect on Ca2+-induced relaxation): no effect

## CC(=O)N(C)C1(c2ccccc2)CCN(CCC[C@]2(c3ccc(Cl)c(Cl)c3)CCCN(C(=O)c3ccccc3)C2)CC1 [SR 142801]
[1]
  Result (antagonist effect on Ca2+-induced relaxation): no effect

## CC(C)Oc1cccc(CC(=O)N2CCC[C@](CC[N+]34CCC(c5ccccc5)(CC3)CC4)(c3ccc(Cl)c(Cl)c3)C2)c1 [SRI40333]
[1]
  Result (antagonist effect on Ca2+-induced relaxation): no effect

## CC[N+](CC)(CC)CC [TEA]
[1]
  effect on Ca2+-induced relaxation: completely inhibited; also recorded: antagonized

## CSCC[C@H](NC(=O)[C@H](CC(C)C)NC(=O)CNC(=O)[C@H](Cc1ccccc1)NC(=O)[C@H](Cc1ccccc1)NC(=O)[C@H](CCC(N)=O)NC(=O)[C@H](CCC(N)=O)NC(=O)[C@@H]1CCCN1C(=O)CNC(=O)[C@H](CC(C)C)NC(=O)[C@H](CC(C)C)NC(=O)[C@H](Cc1ccc(O)cc1)NC(=O)CNC(=O)[C@H](C)NC(=O)[C@H](CO)NC(=O)[C@H](CC(N)=O)NC(=O)[C@H](CC(C)C)NC(=O)[C@@H](NC(=O)[C@H](Cc1c[nH]c2ccccc12)NC(=O)CN)[C@@H](C)O)C(N)=O [galantide]
[1]
  Result (antagonist effect on Ca2+-induced relaxation): no effect

## COc1ccc2c(c1)c(CC(=O)O)c(C)n2C(=O)c1ccc(Cl)cc1 [indomethacin]
[1]; at 1.5 mM Ca2+
  Result (antagonist effect on Ca2+-induced relaxation): partial effect

## Clc1ccc(COC(Cn2ccnc2)c2ccc(Cl)cc2Cl)c(Cl)c1 (centres unmarked) [miconazole]
[1]; 5 mM Ca2+
  effect on Ca2+-induced relaxation: significantly attenuated
[1]; Ca2+ 1.5-3 mM
  effect on Ca2+-induced relaxation: completely antagonized
[1]; [6]
  effect on Ca2+-induced relaxation: significantly attenuated

## Oc1ccc2c3c1O[C@H]1c4[nH]c5c(c4C[C@@]4(O)[C@@H](C2)N(CC2CC2)CC[C@]314)C[C@@]1(O)[C@H]2Cc3ccc(O)c4c3[C@@]1(CCN2CC1CC1)[C@H]5O4 [nor-binaltorphmine]
[1]
  Result (antagonist effect on Ca2+-induced relaxation): no effect

## C[C@@H]1O[C@@H](O[C@H]2C[C@@H](O)[C@]3(CO)[C@H]4[C@H](O)C[C@]5(C)[C@@H](C6=CC(=O)OC6)CC[C@]5(O)[C@@H]4CC[C@]3(O)C2)[C@H](O)[C@H](O)[C@H]1O [ouabain]
Rat tail arteries
  effect of pre-treatment on Ca2+-induced relaxation of rat tail arteries: antagonized

## CCCC(C)C1(CC)C(=O)NC(=O)NC1=O (centres unmarked) [pentobarbital]
[1]
  effect on Ca2+-induced relaxation: significantly attenuated
[1]; 5 mM Ca2+
  effect on Ca2+-induced relaxation: significantly attenuated
[1]; Ca2+ 1.5-3 mM
  effect on Ca2+-induced relaxation: completely antagonized

## Oc1ccccc1 [phenol]
[1]
  effect on Ca2+-induced relaxation: completely blocks and often reverses; also recorded: significantly inhibited; also recorded: completely inhibits

## CCN(CC)CCCC(C)Nc1c2ccc(Cl)cc2nc2ccc(OC)cc12 (centres unmarked) [quinacrine]
[1]; [6]
  effect on Ca2+-induced relaxation: significantly attenuated
[1]; PLA2 blockade
  effect on Ca2+-induced relaxation: significantly attenuates

## NCCCNCCCCNCCCN [spermine]
CaR
  activation of CaR: activated

## CN1[C@@H]2CC[C@H]1C[C@@H](O)C2 [tropine]
[1]
  Result (antagonist effect on Ca2+-induced relaxation): no effect

## CGRP (8-37): CGRP antagonist (VTHRLAGLLSRSGGVVKNNFVPTNVGSKAF; ends and bridges not checked; UniProt P06881 90-119, looked up, fragment)
[1]
  Result (antagonist effect on Ca2+-induced relaxation): no effect

## charybdotoxin
[1]; prior results, K / KCa channel blockade
  effect on Ca2+-induced relaxation: antagonized
[4]
  effect on decrease in active stress induced by 1.6 and 2.5 mmol/L extracellular Ca2+: inhibited

## neomycin
CaR
  activation of CaR: activated

## spantide II
[1]
  Result (antagonist effect on Ca2+-induced relaxation): no effect

## tin protoporphorin IX
[1]
  Result (antagonist effect on Ca2+-induced relaxation): no effect
